# Biological target: T1, Phospho-N-acetylmuramoyl-pentapeptide-transferase (Bacillus subtilis (strain 168), UniProt Q03521)
# T1 sequence (Q03521 whole entry): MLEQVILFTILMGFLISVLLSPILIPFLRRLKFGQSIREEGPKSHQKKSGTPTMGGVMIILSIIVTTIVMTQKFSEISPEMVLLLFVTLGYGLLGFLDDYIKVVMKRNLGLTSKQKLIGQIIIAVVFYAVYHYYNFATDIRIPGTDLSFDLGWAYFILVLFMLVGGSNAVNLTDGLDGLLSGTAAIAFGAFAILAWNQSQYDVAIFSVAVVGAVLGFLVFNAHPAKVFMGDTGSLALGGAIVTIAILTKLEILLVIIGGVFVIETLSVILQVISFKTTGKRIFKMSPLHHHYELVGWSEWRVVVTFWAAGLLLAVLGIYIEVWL
# Assay: Inhibition of Bacillus subtilis MraY
smiles,measurement,value
NC[C@H]1O[C@@H](O[C@@H](Cn2cc(CCCCCO)nn2)[C@H]2O[C@@H](n3ccc(=O)[nH]c3=O)[C@H](O)[C@@H]2O)[C@H](O)[C@@H]1O,IC50,0.4 µM

# — BindingDB's records for PubMed 27021004 (University of Warwick, 2016)
